Source: patent US11674959B2, “Methods for identifying and preparing pharmaceutical agents for activating Tie1 and/or Tie2 receptors” (The Johns Hopkins University, priority 2017, dated 2023)

System: MEC monolayers
Test: Immunofluorescence of MEC monolayers for VE-cadherin and F-actin
Format: cell-based, human
Details: 200 ng/ml Ang2, increasing concentrations of AXT107
Experimental: The jaggedness of these junctions is related to the structure of actin within the cell.
Glass-bottomed, 96-well plates with half well size were coated with 10 μg/ml FN1 for two hours at 37° C. The FN1 solution was then removed by aspiration and the plate seeded with 4×10^3 MECs in EGM-2MV media. After twenty-four hours, the cells were washed once with dPBS containing Ca^2+ and Mg^2+ to remove dead cells and the cells were allowed to grow for an additional twenty-four hours. For three-hour duration treatments (i.e., VE-cadherin), cells were washed twice with dPBS containing Ca^2+ and Mg^2+ and serum starved in EBM-2 for ninety minutes. The media was then removed and the cells were treated for three hours with 100 μl of EBM-2 media containing 200 ng/ml Ang2 or PBS and varying concentrations of AXT107 or DMSO. For fifteen minute-treated samples (i.e., phospho-Tie2), the cells were serum starved in EBM-2 media for 165 minutes, incubated for ninety minutes with varying concentrations of AXT107 or DMSO in EBM-2, and finally stimulated for fifteen minutes with 200 ng/ml Ang2 or PBS supplemented with peptide to retain the same concentrations. These times were chosen so that both treatment procedures would be completed at the same time. The cells were then washed twice with cold dPBS containing Ca^2+ and Mg^2+ and fixed in 10% neutral buffered formalin for fifteen minutes. […]

LRRFSTAPFAFIDINDVINF [AXT107]
Actin fiber arrangement: became more cortical with increasing concentrations of AXT107
Distribution of VE-cadherin at junctions: became progressively smoother with increasing concentrations of AXT107
